Results reported in patent publication EP0162413A2, “Polyamine for use as a medicine in the treatment of neoplasms” (MERRELL DOW PHARMACEUTICALS INC., priority 1984, dated 1985).

Tests used:
L1210 Leukemia [1] = experiment: Survival of mice with L1210 leukemia (norspermidine, DFMO); format: in vivo; conditions: Norspermidine i.p. 50 mg/kg/day day 1 to 7; DFMO 2% solution in drinking water (approximately 3 g/kg)
Protocol: (§1) 1 x 10^5 L1210 leukemic cells per animal were innoculated i.p. on day 0 and drug treatments were started on day 1. DFMO was administered as 2% solution in drinking water (approximately 3 g/kg based on fluid intake). Norspermidine was administered i.p. at 50 mg/kg/day from day 1 to 7. Polyamine concentrations were determined on cells collected from treated and control animals on day 4. ND: not detectable; [formula]

L1210 Leukemia [2] = experiment: Polyamine levels of L1210 leukemia cells collected from treated mice; format: in vivo; conditions: L1210 cells collected on day 4; Norspermidine i.p. 50 mg/kg/day; DFMO 2% in drinking water
Protocol: as §1

Lewis Lung Tumor (3LL) = experiment: Growth of Lewis lung tumor (3LL) in mice (DFMO, norspermidine); format: in vivo; conditions: 3LL s.c.; Norspermidine i.p. 50 mg/kg/day day 1 to 14; DFMO 2% in drinking water; tumors weighed at end of 18 days
Protocol: 1 x 10^5 3LL cells per animal were injected s.c. in the intrascapular region of the mice on day 0. Drug treatments were started on day 1. DFMO was administered as a 2% solution in drinking water (approximately 3 g/kg based on fluid intake). Norspermidine was administered i.p. 50 mg/kg/day from day 1 to 14. At the end of 18 days, animals were sacrificed, tumors disected and weighed.

B16 Melanoma [3] = experiment: Survival of B16 melanoma bearing mice (DFMO, norspermidine); format: in vivo; conditions: B16 i.p.; Norspermidine i.p. 50 mg/kg/day day 1 to 7; DFMO 2% in drinking water
Protocol: 1 x 10^5 B16 melanoma cells per animal were injected i.p. on day 0. Drug treatments were started on day 1. DFMO was administered as a 2% solution in drinking water (approximately 3 g/kg based on fluid intake). Norspermidine was administered i.p. at 50 mg/kg/day starting day 1 to 7. [formula]

[4] = system: Human Cervical Cancer (HeLa); experiment: Growth of HeLa cells in culture (N,N'-bis(3-aminopropyl)-1,8-octanediamine); format: cell-based; conditions: 72 hours, 37°C
Protocol: (§2) HeLa cells and B16 melanoma cells were plated at a density of 1 x 10^5/plate (35 mm) and incubated overnight. Different concentrations of the compound in regular medium --were added and cell growth was determined after 72 hours of incubation at 37°C.

[5] = system: Mouse Melanoma (B16) Cells; experiment: Growth of B16 melanoma cells in culture (N,N'-bis(3-aminopropyl)-1,8-octanediamine); format: cell-based; conditions: 72 hours, 37°C
Protocol: as §2

L1210 Leukemia [6] = experiment: Antitumor activity against L1210 leukemia in mice, survival (N,N'-bis(3-aminopropyl)-1,8-octanediamine); format: in vivo
Protocol: Treatment Survival (Days) % T/C Control 7.5 ^± 0.5 Compound 25 mg/kg^* 16.0 ^± 1.5 213.3 6.26 mg/kg^** 27 ^± 3.0 360.0 1 x 10^5 L1210 leukemic cells/animal were inoculated i.p. on day 0 and drug treatments were started as follows: * N,N'-bis(3-aminopropyl)-1,8-octanediamine was administered i.p. at 25 mg/Kg/day. from day 1-7. ^** The compound was administered i.p. at 6.25 mg/kg 4 times a day, every three hours starting at 8:30 a.m. to 5:30 p.m. from days 3-7. [formula]

B16 Melanoma [7] = experiment: Antitumor activity against B16 melanoma in mice, tumor weight; format: in vivo; conditions: day 1-10, tumor cells s.c., sacrificed on day 15
Protocol: (§3) 1 x 10^5 tumor cells/animal were inoculated s.c. on day 0 and the drug treatments were started on day 1. "N,N'-bis (3-aminopropyl)-1, 8-octanediamine was administered at different doses from day 1-10. The animals were sacrificed on day 15 and the tumors were dissected and weighed.

Lewis Lung Carcinoma = experiment: Antitumor activity against Lewis lung carcinoma in mice, tumor weight; format: in vivo; conditions: day 1-10, tumor cells s.c., sacrificed on day 15
Protocol: as §3

HeLa Cells [8] = experiment: Growth and mitotic index of HeLa cells in culture (norspermidine); format: cell-based, Human; conditions: 72 hours, 37°C
HeLa Cells [9] = experiment: Polyamine levels of HeLa cells in culture (norspermidine); format: cell-based, Human

Compound: NCCC[C@](N)(C(=O)O)C(F)F [DFMO, α-difluoromethyl ornithine, reference compound]
- % T/C (L1210 Leukemia [1]): 107%
- Survival (L1210 Leukemia [1]): 8.0 days
- Polyamine Concentration Putrescine (L1210 Leukemia [2]): 0.015 n·moles/10^6 cells
- Polyamine Concentration Spermidine (L1210 Leukemia [2]): 0.84 n·moles/10^6 cells
- Polyamine Concentration Spermine (L1210 Leukemia [2]): 1.18 n·moles/10^6 cells
- % Inhibition (Lewis Lung Tumor (3LL)): 4%
- Tumor Weight (gr) (Lewis Lung Tumor (3LL)): 4.92 gr
- % T/C (B16 Melanoma [3]): 129%
- Survival (B16 Melanoma [3]): 17.5 days

Compound: NCCCNCCCCCCCCNCCCN [N,N'-bis(3-aminopropyl)-1,8-octanediamine]
- HeLa Cells Cell No. x 10^5 ([4]; 0.001 mM): 7.56 x 10^5
- HeLa Cells Cell No. x 10^5 ([4]; 0.01 mM): 5.9 x 10^5
- HeLa Cells Cell No. x 10^5 ([4]; 0.1 mM): 4.56 x 10^5
- HeLa Cells Cell No. x 10^5 ([4]; 1.0 mM): 2.82 x 10^5
- inhibition at 1 µM ([4]; Homo sapiens, HeLa, 0.001 mM, read-out: HeLa Cells % Inh. of Cell Growth): 39%
- inhibition at 10 µM ([4]; Homo sapiens, HeLa, 0.01 mM, read-out: HeLa Cells % Inh. of Cell Growth): 50%
- inhibition at 100 µM ([4]; Homo sapiens, HeLa, 0.1 mM, read-out: HeLa Cells % Inh. of Cell Growth): 62%
- inhibition at 1000 µM ([4]; Homo sapiens, HeLa, 1.0 mM, read-out: HeLa Cells % Inh. of Cell Growth): 76%
- B16 Melanoma Cell No. x 10^6 ([5]; 0.001 mM): 14.5 x 10^6
- B16 Melanoma Cell No. x 10^6 ([5]; 0.01 mM): 7.40 x 10^6
- B16 Melanoma Cell No. x 10^6 ([5]; 0.1 mM): 7.42 x 10^6
- B16 Melanoma Cell No. x 10^6 ([5]; 1.0 mM): 0 x 10^6
- inhibition at 1 µM ([5]; Mus musculus, B16, 0.001 mM, read-out: B16 Melanoma % Inh. of Cell Growth): 16%
- inhibition at 10 µM ([5]; Mus musculus, B16, 0.01 mM, read-out: B16 Melanoma % Inh. of Cell Growth): 57%
- inhibition at 100 µM ([5]; Mus musculus, B16, 0.1 mM, read-out: B16 Melanoma % Inh. of Cell Growth): 57%
- inhibition at 1000 µM ([5]; Mus musculus, B16, 1.0 mM, read-out: B16 Melanoma % Inh. of Cell Growth): 100%
- % T/C (L1210 Leukemia [6]; 6.26 mg/kg (footnote: i.p. at 6.25 mg/kg 4 times a day, every three hours, days 3-7)): 360.0%
- % T/C (L1210 Leukemia [6]; 25 mg/kg: i.p. at 25 mg/Kg/day from day 1-7): 213.3%
- B16 Melanoma % Inh. (B16 Melanoma [7]; 6.25 mg/kg): 66%
- B16 Melanoma Tumor Weight (gms) (B16 Melanoma [7]; 6.25 mg/kg): 1.68 ± 0.37 gms
- B16 Melanoma % Inh. (B16 Melanoma [7]; 12.5 mg/kg): 81%
- B16 Melanoma Tumor Weight (gms) (B16 Melanoma [7]; 12.5 mg/kg): 0.95 ± 0.29 gms
- Lewis Lung Carcinoma % Inh. (Lewis Lung Carcinoma; 6.25 mg/kg): 37%
- Lewis Lung Carcinoma Tumor Weight (gms) (Lewis Lung Carcinoma; 6.25 mg/kg): 3.10 ± 0.39 gms
- Lewis Lung Carcinoma % Inh. (Lewis Lung Carcinoma; 12.5 mg/kg): 61%
- Lewis Lung Carcinoma Tumor Weight (gms) (Lewis Lung Carcinoma; 12.5 mg/kg): 1.94 ± 0.24 gms

Compound: NCCCNCCCN [Norspermidine, norspermidine]
- Cell No. x 10^6 (HeLa Cells [8]; 0.005 mM): 0.70 x 10^6
- Mitotic Index (HeLa Cells [8]; 0.005 mM): 74.0
- Cell No. x 10^6 (HeLa Cells [8]; 0.05 mM): 0.64 x 10^6
- Mitotic Index (HeLa Cells [8]; 0.05 mM): 76.7
- Cell No. x 10^6 (HeLa Cells [8]; 0.5 mM): 0.70 x 10^6
- Mitotic Index (HeLa Cells [8]; 0.5 mM): 71.0
- inhibition at 5 µM (HeLa Cells [8]; Homo sapiens, HeLa, 0.005 mM, read-out: % Inhibition of Cell Growth): 61%
- inhibition at 50 µM (HeLa Cells [8]; Homo sapiens, HeLa, 0.05 mM, read-out: % Inhibition of Cell Growth): 65%
- inhibition at 500 µM (HeLa Cells [8]; Homo sapiens, HeLa, 0.5 mM, read-out: % Inhibition of Cell Growth): 61%
- Polyamine Concentration Norspermidine (HeLa Cells [9]; 0.005 mM): 5.31 n·moles/10^6 cells
- Polyamine Concentration Putriscine (HeLa Cells [9]; 0.005 mM): 0.026 n·moles/10^6 cells
- Polyamine Concentration Spermidine (HeLa Cells [9]; 0.005 mM): 0.849 n·moles/10^6 cells
- Polyamine Concentration Spermine (HeLa Cells [9]; 0.005 mM): 0.637 n·moles/10^6 cells
- Polyamine Concentration Norspermidine (HeLa Cells [9]; 0.05 mM): 4.30 n·moles/10^6 cells
- Polyamine Concentration Spermidine (HeLa Cells [9]; 0.05 mM): 0.433 n·moles/10^6 cells
- Polyamine Concentration Spermine (HeLa Cells [9]; 0.05 mM): 0.452 n·moles/10^6 cells
- Polyamine Concentration Norspermidine (HeLa Cells [9]; 0.5 mM): 6.32 n·moles/10^6 cells
- Polyamine Concentration Spermidine (HeLa Cells [9]; 0.5 mM): 0.481 n·moles/10^6 cells
- Polyamine Concentration Spermine (HeLa Cells [9]; 0.5 mM): 0.441 n·moles/10^6 cells
- % T/C (L1210 Leukemia [1]): 147%
- Survival (L1210 Leukemia [1]): 11.0 days
- Polyamine Concentration Spermidine (L1210 Leukemia [2]): 0.69 n·moles/10^6 cells
- Polyamine Concentration Spermine (L1210 Leukemia [2]): 0.77 n·moles/10^6 cells
- % Inhibition (Lewis Lung Tumor (3LL)): 32%
- Tumor Weight (gr) (Lewis Lung Tumor (3LL)): 3.50 gr
- % T/C (B16 Melanoma [3]): 133%
- Survival (B16 Melanoma [3]): 18.0 days
